According to PubChem BioAssay AID296 (DTP/NCI, 2004):
Where “and” joins values, the source holds several entries; their conditions need not be identical. Equal values may be shown once. Inconclusive results are not listed.

Test system: MX-1 breast xenograft, nude mice, tumor weight T/C
Experiment: NCI In Vivo Anticancer Drug Screen. Data for tumor model Human Mammary Carcinoma MX-1 Xenograft (intrarenal inoculation) in NU/NU Swiss (nude) mice
Settings: endpoint: mean tumor weight change, higher = larger tumour
Method in brief: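 Mice carrying the implanted tumor receive either test agent or vehicle. Tumor size or survival is then recorded for both groups. Results are stated as the treated-to-control quotient.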

[1] = dose: 150.0 mg/kg/injection, schedule: Q04DX003 (sc), vehicle: saline
[2] = dose: 300.0 mg/kg/injection, schedule: Q04DX003 (sc), vehicle: saline
[3] = dose: 600.0 mg/kg/injection, schedule: Q04DX003 (sc), vehicle: saline
[4] = dose: 800.0 mg/kg/injection, schedule: Q04DX003 (sc), vehicle: saline
[5] = dose: 1200.0 mg/kg/injection, schedule: Q04DX003 (sc), vehicle: saline
[6] = dose: 1600.0 mg/kg/injection, schedule: Q04DX003 (sc), vehicle: saline
[7] = dose: 100.0 mg/kg/injection, schedule: Q01DX010 (sc), vehicle: Klucel (hydroxypropylcellulose) (HPC)
[8] = dose: 150.0 mg/kg/injection, schedule: Q04DX003 (sc), vehicle: suspension in saline

Question: `Nc1ncn(C2OC(CO)C(O)C2O)c(=O)n1` (stereo not drawn) was tested. Which T/C (dose: 0.38 mg/kg/injection, schedule: Q01DX010 (sc), vehicle: saline) did it give?
Answer: 69 % of control

Question: And the T/C (dose: 0.75 mg/kg/injection, schedule: Q01DX010 (sc), vehicle: saline)?
Answer: 58 % of control and 68 % of control

Question: And the T/C (dose: 1.5 mg/kg/injection, schedule: Q01DX010 (sc), vehicle: saline)?
Answer: 25 % of control

Question: What about the T/C (dose: 2.5 mg/kg/injection, schedule: Q04DX003 (sc), vehicle: saline) of the same compound?
Answer: 50 % of control

Question: What about the T/C (dose: 20.0 mg/kg/injection, schedule: Q04DX003 (sc), vehicle: saline) of the same compound?
Answer: 6 % of control and 14 % of control

Question: And the T/C [1]?
Answer: 8 % of control

Question: What about the T/C (dose: 200.0 mg/kg/injection, schedule: Q04DX003 (sc), vehicle: saline) of the same compound?
Answer: 52 % of control

Question: What about the T/C (dose: 200.0 mg/kg/injection, schedule: Q04DX003 (sc), vehicle: suspension in saline) of the same compound?
Answer: 5 % of control and 7 % of control

Question: And the T/C [2]?
Answer: 7 % of control

Question: And the T/C (dose: 400.0 mg/kg/injection, schedule: Q04DX003 (sc), vehicle: saline)?
Answer: 15 % of control

Question: What about the T/C [3] of the same compound?
Answer: 2 % of control

Question: And the T/C [4]?
Answer: 5 % of control

Question: What about the T/C [5] of the same compound?
Answer: -29 % of control

Question: And the T/C [6]?
Answer: 2 % of control

Question: What about the T/C (dose: 1600.0 mg/kg/injection, schedule: Q04DX003 (sc), vehicle: suspension in saline) of the same compound?
Answer: 15 % of control

Question: Which T/C (dose: 1.5 mg/kg/injection, schedule: Q04DX003 (sc), vehicle: suspension in saline) does the source give for `CCC1(O)CC2CN(CCc3c([nH]c4ccccc34)C(C(=O)OC)(c3cc4c(cc3OC)N(C)C3C(O)(C(=O)NCCSSCCNC(=O)C5(O)C(O)C6(CC)C=CCN7CCC8(c9cc(C%10(C(=O)OC)CC%11CN(CCc%12c%10[nH]c%10ccccc%12%10)CC(O)(CC)C%11)c(OC)cc9N(C)C58)C76)C(O)C5(CC)C=CCN6CCC43C65)C2)C1` (stereo not drawn) here?
Answer: 101 % of control

Question: What about the T/C (dose: 3.0 mg/kg/injection, schedule: Q04DX003 (sc), vehicle: suspension in saline) of the same compound?
Answer: 102 % of control

Question: What about the T/C (dose: 6.0 mg/kg/injection, schedule: Q04DX003 (sc), vehicle: suspension in saline) of the same compound?
Answer: 70 % of control

Question: And the T/C (dose: 12.0 mg/kg/injection, schedule: Q04DX003 (sc), vehicle: saline)?
Answer: 1 % of control

Question: And the T/C (dose: 12.0 mg/kg/injection, schedule: Q04DX003 (sc), vehicle: suspension in saline)?
Answer: 73 % of control

Question: `CCOC(=O)C(CC(C)C)NC(=O)C(N)Cc1ccc(N(CCCl)CCCl)cc1` (stereo not drawn) was tested. Which T/C (dose: 60.0 mg/kg/injection, schedule: Q04DX003 (sc), vehicle: water) did it give?
Answer: -100 % of control

Question: For `Nc1ccn(C2OC(CO)C(O)C2O)c(=O)n1` (stereo not drawn), which T/C (dose: 7.5 mg/kg/injection, schedule: Q01DX010 (sc), vehicle: water) is on record?
Answer: 53 % of control

Question: And the T/C (dose: 7.81 mg/kg/injection, schedule: Q01DX010 (sc), vehicle: water)?
Answer: 62 % of control

Question: What about the T/C (dose: 15.0 mg/kg/injection, schedule: Q01DX010 (sc), vehicle: water) of the same compound?
Answer: 27 % of control

Question: What about the T/C (dose: 15.63 mg/kg/injection, schedule: Q01DX010 (sc), vehicle: water) of the same compound?
Answer: 28 % of control and 30 % of control

Question: And the T/C (dose: 30.0 mg/kg/injection, schedule: Q01DX010 (sc), vehicle: water)?
Answer: 18 % of control

Question: What about the T/C (dose: 31.25 mg/kg/injection, schedule: Q01DX010 (sc), vehicle: water) of the same compound?
Answer: 9 % of control and 12 % of control

Question: What about the T/C (dose: 60.0 mg/kg/injection, schedule: Q01DX010 (sc), vehicle: water) of the same compound?
Answer: 9 % of control

Question: And the T/C (dose: 600.0 mg/kg/injection, schedule: Q04DX003 (sc), vehicle: water)?
Answer: 41 % of control

Question: Which results are given for `O/N=C/c1ccccc1O.O/N=C/c1ccccc1O.[Cu]`?
Answer: T/C (dose: 300.0 mg/kg/injection, schedule: Q04DX003 (sc), vehicle: saline with Tween-80): 81 % of control; T/C (dose: 600.0 mg/kg/injection, schedule: Q04DX003 (sc), vehicle: saline with Tween-80): 72 % of control; T/C (dose: 1200.0 mg/kg/injection, schedule: Q04DX003 (sc), vehicle: saline with Tween-80): 60 % of control; T/C (dose: 2400.0 mg/kg/injection, schedule: Q04DX003 (sc), vehicle: saline with Tween-80): 103 % of control

Question: Which T/C [4] does the source give for `Cc1cn(C2CC(O)C(CO)O2)c(=O)[nH]c1=O` (stereo not drawn) here?
Answer: 105 % of control

Question: What about the T/C [6] of the same compound?
Answer: 89 % of control

Question: What about the T/C (dose: 3200.0 mg/kg/injection, schedule: Q04DX003 (sc), vehicle: saline) of the same compound?
Answer: 50 % of control

Question: What about the T/C (dose: 6400.0 mg/kg/injection, schedule: Q04DX003 (sc), vehicle: saline) of the same compound?
Answer: 62 % of control

Question: `N[C@@H](Cc1c[nH]c2ccccc12)C(=O)Nc1nncs1` was tested. Which T/C (dose: 300.0 mg/kg/injection, schedule: Q04DX003 (ip), vehicle: suspension in saline) did it give?
Answer: 69 % of control

Question: What about the T/C (dose: 600.0 mg/kg/injection, schedule: Q04DX003 (ip), vehicle: suspension in saline) of the same compound?
Answer: 50 % of control

Question: Which results are given for `CCNC(=O)[B-][N+](C)(C)C`?
Answer: T/C (dose: 100.0 mg/kg/injection, schedule: Q04DX003 (sc), vehicle: Klucel (hydroxypropylcellulose) (HPC)): 115 % of control; T/C (dose: 200.0 mg/kg/injection, schedule: Q04DX003 (sc), vehicle: Klucel (hydroxypropylcellulose) (HPC)): 92 % of control; T/C (dose: 400.0 mg/kg/injection, schedule: Q04DX003 (sc), vehicle: Klucel (hydroxypropylcellulose) (HPC)): 74 % of control

Question: For `C[N+](C)(C)c1cc2c(nn1)Nc1ccccc1S2`, which T/C (dose: 50.0 mg/kg/injection, schedule: Q01DX010 (sc), vehicle: Klucel (hydroxypropylcellulose) (HPC)) is on record?
Answer: 74 % of control

Question: And the T/C [7]?
Answer: 240 % of control and 272 % of control

Question: `Cc1cc(C)c(-c2cc(O)c(C)cc2O)c(C)c1` was tested. Which T/C (dose: 300.0 mg/kg/injection, schedule: Q04DX003 (sc), vehicle: Klucel (hydroxypropylcellulose) (HPC)) did it give?
Answer: 588 % of control

Question: What about the T/C (dose: 600.0 mg/kg/injection, schedule: Q04DX003 (sc), vehicle: Klucel (hydroxypropylcellulose) (HPC)) of the same compound?
Answer: 557 % of control

Question: What about the T/C (dose: 1200.0 mg/kg/injection, schedule: Q04DX003 (sc), vehicle: Klucel (hydroxypropylcellulose) (HPC)) of the same compound?
Answer: 388 % of control

Question: What about the T/C (dose: 2400.0 mg/kg/injection, schedule: Q04DX003 (sc), vehicle: Klucel (hydroxypropylcellulose) (HPC)) of the same compound?
Answer: 420 % of control

Question: `COC(=O)c1ccoc1` was tested. Which T/C [1] did it give?
Answer: 123 % of control

Question: And the T/C [2]?
Answer: 89 % of control

Question: And the T/C [3]?
Answer: 66 % of control

Question: How did the T/C (dose: 75.0 mg/kg/injection, schedule: Q04DX003 (sc), vehicle: saline) turn out when `CCOC(=O)C(N)C[S][Sn]([CH3])([CH3])[Cl]` (stereo not drawn) was run?
Answer: 155 % of control

Question: How did the T/C (dose: 25.0 mg/kg/injection, schedule: Q01DX010 (sc), vehicle: Klucel (hydroxypropylcellulose) (HPC)) turn out when `COC(=O)Nc1cccc(-c2nc3ccc(NC(=O)OC)cc3c(=O)n2-c2ccccc2)c1` was run?
Answer: 87 % of control

Question: What about the T/C [7] of the same compound?
Answer: 33 % of control

Question: And the T/C (dose: 400.0 mg/kg/injection, schedule: Q01DX010 (sc), vehicle: Klucel (hydroxypropylcellulose) (HPC))?
Answer: 123 % of control

Question: `CC(=O)OCC1OC(n2ccc(N)nc2=O)C(OC(C)=O)C1OC(C)=O` (stereo not drawn) was tested. Which T/C [8] did it give?
Answer: 89 % of control

Question: What about the T/C [2] of the same compound?
Answer: 107 % of control

Question: And the T/C [3]?
Answer: 82 % of control

Question: And the T/C [5]?
Answer: 84 % of control

Question: What about the T/C (dose: 2400.0 mg/kg/injection, schedule: Q04DX003 (sc), vehicle: suspension in saline) of the same compound?
Answer: 14 % of control

Question: For `C(=N/NC1=NCCN1)/c1c2ccccc2c(/C=N\NC2=NCCN2)c2ccccc12`, which T/C (dose: 75.0 mg/kg/injection, schedule: Q04DX003 (sc), vehicle: suspension in saline) is on record?
Answer: 11 % of control and 25 % of control

Question: And the T/C [8]?
Answer: 17 % of control and 18 % of control

Question: With `Cc1ccccc1N(CC1CO1)CC1CO1` (stereo not drawn) as the compound, how does the T/C (dose: 50.0 mg/kg/injection, schedule: Q01DX010 (sc), vehicle: saline) read?
Answer: 54 % of control

Question: And the T/C (dose: 100.0 mg/kg/injection, schedule: Q01DX010 (sc), vehicle: saline)?
Answer: 91 % of control

Question: What about the T/C (dose: 200.0 mg/kg/injection, schedule: Q01DX010 (sc), vehicle: saline) of the same compound?
Answer: 89 % of control

Question: What about the T/C (dose: 400.0 mg/kg/injection, schedule: Q01DX010 (sc), vehicle: saline) of the same compound?
Answer: 56 % of control

Question: And the T/C (dose: 800.0 mg/kg/injection, schedule: Q01DX010 (sc), vehicle: suspension in saline)?
Answer: 111 % of control

Question: How did the T/C (dose: 1200.0 mg/kg/injection, schedule: Q04DX003 (sc), vehicle: water) turn out when `CCCCCCCCCCCCCCCC(=O)Nc1ccn(C2OC(CO)C(O)C2O)c(=O)n1` (stereo not drawn) was run?
Answer: -65 % of control and -50 % of control

Question: With `O=[n+]1c2ccccc2n([O-])c2ccccc21.[Cl][Ni][Cl]` as the compound, how does the T/C (dose: 75.0 mg/kg/injection, schedule: Q04DX003 (sc), vehicle: saline with Tween-80) read?
Answer: 90 % of control

Question: And the T/C (dose: 150.0 mg/kg/injection, schedule: Q04DX003 (sc), vehicle: saline with Tween-80)?
Answer: 53 % of control

Question: For `CC(C)(C[NH-])C[NH-].[Cl][Pt+2][Cl]`, which T/C (dose: 1.5 mg/kg/injection, schedule: Q04DX003 (ip), vehicle: other) is on record?
Answer: 117 % of control

Question: And the T/C (dose: 1.5 mg/kg/injection, schedule: Q04DX003 (ip), vehicle: water)?
Answer: 4 % of control

Question: And the T/C (dose: 3.0 mg/kg/injection, schedule: Q04DX003 (ip), vehicle: other)?
Answer: 112 % of control

Question: What about the T/C (dose: 3.0 mg/kg/injection, schedule: Q04DX003 (ip), vehicle: water) of the same compound?
Answer: -58 % of control

Question: What about the T/C (dose: 6.0 mg/kg/injection, schedule: Q04DX003 (ip), vehicle: water) of the same compound?
Answer: -84 % of control

Question: What does the source list for `O=C([O][Bi]([c]1ccccc1)[c]1ccccc1)c1ccccc1`?
Answer: T/C (dose: 25.0 mg/kg/injection, schedule: Q04DX003 (ip), vehicle: Klucel (hydroxypropylcellulose) (HPC)): 91 % of control; T/C (dose: 50.0 mg/kg/injection, schedule: Q04DX003 (ip), vehicle: Klucel (hydroxypropylcellulose) (HPC)): 78 % of control; T/C (dose: 100.0 mg/kg/injection, schedule: Q04DX003 (ip), vehicle: Klucel (hydroxypropylcellulose) (HPC)): 64 % of control
